Measured values as given in EP0611765A1, “2-(Imidazol-1-yl)-3-heteroarylpropylidene-aminoxyalkanoic acid derivatives” (PHARMACIA S.p.A., priority 1993, dated 1994).

Assays:
TxA₂ Synthase [1] = target: T1, TxA₂ Synthase (Rattus norvegicus, UniProt P49430); assay: In vitro effects on TxB₂ production in rat whole blood during clotting (RIA); format: cell-based; settings: result in words
T1 construct: Blood was withdrawn from the abdominal aorta of the animals under light ether anesthesia; from tissue; host or cells: rat whole blood (clotting; platelets)
T1 sequence (P49430 1-533): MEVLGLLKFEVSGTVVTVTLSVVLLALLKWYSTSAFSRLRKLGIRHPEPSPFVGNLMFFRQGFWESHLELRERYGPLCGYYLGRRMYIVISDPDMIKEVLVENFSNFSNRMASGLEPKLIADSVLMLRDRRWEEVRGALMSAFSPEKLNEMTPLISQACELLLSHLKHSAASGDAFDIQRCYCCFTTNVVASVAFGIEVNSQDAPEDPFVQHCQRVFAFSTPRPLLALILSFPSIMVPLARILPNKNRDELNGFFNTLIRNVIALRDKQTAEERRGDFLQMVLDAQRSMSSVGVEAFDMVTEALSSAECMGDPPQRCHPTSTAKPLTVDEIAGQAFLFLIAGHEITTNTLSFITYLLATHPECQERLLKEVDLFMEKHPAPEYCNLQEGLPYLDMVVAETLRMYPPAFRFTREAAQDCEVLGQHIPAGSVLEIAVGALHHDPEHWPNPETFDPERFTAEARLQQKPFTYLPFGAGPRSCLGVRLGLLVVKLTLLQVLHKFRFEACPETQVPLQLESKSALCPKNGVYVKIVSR
Method: The compounds of formula (I) were for example tested for their ability to inhibit TxA₂ Synthase activity (as reflected by TxB₂ generated in whole blood during clotting or in isolated glomeruli) in vitro in the rat.
The in vitro experiments were carried out as follows: The effect of the compounds on TxA₂ synthesis was evaluated in serum.
Blood was withdrawn from the abdominal aorta of the animals under light ether anesthesia.
Samples were then allowed to clot for 1 h at 37°C, centrifuged at 3000 rpm for 10 min, serum collected and stored at -20°C until assayed. TxB₂ levels were determined by RIA according to previously described procedures [Patrono et al. - Thromb.

TxA₂ synthase [2] = target: T2, TxA₂ synthase (Homo sapiens, UniProt P24557); settings: statement on the known compound; cited from earlier work
T2 sequence (P24557 1-533): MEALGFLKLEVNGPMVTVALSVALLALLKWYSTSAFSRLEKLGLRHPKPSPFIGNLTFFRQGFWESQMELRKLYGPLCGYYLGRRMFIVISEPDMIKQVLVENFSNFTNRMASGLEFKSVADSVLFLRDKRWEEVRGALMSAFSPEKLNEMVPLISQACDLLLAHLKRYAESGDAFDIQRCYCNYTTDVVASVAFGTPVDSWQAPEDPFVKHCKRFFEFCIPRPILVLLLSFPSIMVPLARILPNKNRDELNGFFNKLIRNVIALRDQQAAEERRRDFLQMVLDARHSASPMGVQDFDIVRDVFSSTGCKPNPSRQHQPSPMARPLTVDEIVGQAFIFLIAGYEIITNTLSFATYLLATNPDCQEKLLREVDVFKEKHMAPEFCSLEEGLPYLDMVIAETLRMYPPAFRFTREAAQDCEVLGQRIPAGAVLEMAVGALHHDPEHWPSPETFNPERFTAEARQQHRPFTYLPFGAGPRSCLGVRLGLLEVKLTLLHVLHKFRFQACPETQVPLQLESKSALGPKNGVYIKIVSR

| SMILES | inhibitory activity on TxA₂ synthesis (TxA₂ Synthase [1]) | TxA₂ synthase inhibitory activity (TxA₂ synthase [2]) |
| --- | --- | --- |
| O=C(O)CCCCO/N=C(\C1CCCCC1)C(Cc1cnccn1)n1ccnc1 (racemic) [FCE 27751, (±)-(E)-5-[2-pyrazinylmethyl-2-(imidazol-1-yl)-1-cyclohexylethylidene]aminoxypentanoic acid] | marked inhibitory activity | – |
| O=C(O)COc1ccc(CCNS(=O)(=O)c2ccccc2)cc1 [BM 13177, Sulotroban] | – | devoid of TxA₂ synthase inhibitory activity |
